Assay results taken from patent US7304062B2, “Peroxisome proliferator activated receptor alpha agonists” (Eli Lilly and Company, priority 2000, dated 2007).

With CCCn1c(CCCc2ccc(OC(C)(C)C(=O)O)cc2)nn(Cc2ccc(C)cc2)c1=O the melting point was 94 to 96.5 °C.

CCCn1c(CCCc2ccc(OC)cc2)nn(Cc2ccc(C)cc2)c1=O [Example 118, 5-[3-(4-Methoxyphenyl)-propyl]-2-(4-methylbenzyl)-4-propyl-2,4-dihydro[1,2,4]tria-zol-3-one] showed a melting point of 86.5 to 88.2 °C.
